The values that follow come from ChEMBL document CHEMBL5143725, “Optimization of TEAD P-Site Binding Fragment Hit into In Vivo Active Lead MSC-4106” (J Med Chem, 2022).

Series [1] in a line: Inhibition of YAP/TAZ-TEAD interaction in human SK-HEP1 cells incubated for 24 hrs by luciferase reporter gene assay. It counts as cell-based. (In general: A reporter such as luciferase makes a cellular process visible.)
A short description of series [2]: Microsomal stability in human microsomes measured per 10^6 cells. It counts as ADME, Microsome.
Series [3] can be described thus: Microsomal stability in mouse microsomes measured per 10^6 cells. It counts as ADME, Microsome.
Series [4] concerns NCI-H226. The series is described as follows: Cytotoxicity against human NCI-H226 cells assessed as cell viability at 10 uM measured for 7 days by celltiter-glo assay. It counts as functional, cell-based. Conditions: NCI-H226, 168 h.
For series [5], the target named is T1, Transcriptional enhancer factor TEF-1 (Homo sapiens, UniProt P28347). The series can be described thus: Binding affinity to human TEAD1 (209 to 426 residues) expressed in Escherichia coli BL21 Star (DE3) assessed as change in melting temperature incubated for 2 hrs by measuring tryptophane fluorescence by Nano Differential scanning fluorometry. (Differential scanning fluorimetry follows unfolding on heating by fluorescence.)
T1 sequence (P28347 whole entry, the tested form may be a part): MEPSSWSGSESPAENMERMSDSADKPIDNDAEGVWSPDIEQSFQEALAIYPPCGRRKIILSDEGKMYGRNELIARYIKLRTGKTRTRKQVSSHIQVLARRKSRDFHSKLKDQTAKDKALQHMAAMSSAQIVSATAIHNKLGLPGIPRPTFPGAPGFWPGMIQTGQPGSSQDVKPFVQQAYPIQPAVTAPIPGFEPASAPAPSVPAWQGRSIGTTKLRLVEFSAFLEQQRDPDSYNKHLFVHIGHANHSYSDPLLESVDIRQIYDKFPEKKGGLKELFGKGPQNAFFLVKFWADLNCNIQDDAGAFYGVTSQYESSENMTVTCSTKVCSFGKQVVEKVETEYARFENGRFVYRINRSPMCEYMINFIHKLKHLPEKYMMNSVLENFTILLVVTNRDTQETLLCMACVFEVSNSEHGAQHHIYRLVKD

The target in series [6] is T2, Transcriptional enhancer factor TEF-4 (Homo sapiens, UniProt Q15562). The series can be described thus: Binding affinity to human TEAD2 (217 to 447 residues) expressed in Escherichia coli BL21 Star (DE3) assessed as change in melting temperature incubated for 2 hrs by measuring tryptophane fluorescence by Nano Differential scanning fluorometry.
T2 sequence (Q15562 whole entry, the tested form may be a part): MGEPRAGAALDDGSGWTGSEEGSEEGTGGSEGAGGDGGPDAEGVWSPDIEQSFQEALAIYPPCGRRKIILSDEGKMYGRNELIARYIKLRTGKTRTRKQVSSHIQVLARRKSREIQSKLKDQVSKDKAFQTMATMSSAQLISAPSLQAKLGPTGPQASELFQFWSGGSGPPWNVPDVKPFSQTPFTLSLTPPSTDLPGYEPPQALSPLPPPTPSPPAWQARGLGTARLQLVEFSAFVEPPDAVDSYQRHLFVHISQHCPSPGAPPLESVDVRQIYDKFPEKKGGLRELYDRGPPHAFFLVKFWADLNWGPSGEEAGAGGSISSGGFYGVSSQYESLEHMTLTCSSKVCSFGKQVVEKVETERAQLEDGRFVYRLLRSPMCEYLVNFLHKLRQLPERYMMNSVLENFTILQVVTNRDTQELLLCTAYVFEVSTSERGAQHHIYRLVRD
In series [7] the target is T3, Transcriptional enhancer factor TEF-5 (Homo sapiens, UniProt Q99594). The series is described as follows: Binding affinity to human TEAD3 (216 to 435 residues) expressed in Escherichia coli BL21 Star (DE3) assessed as change in melting temperature incubated for 2 hrs by measuring tryptophane fluorescence by Nano Differential scanning fluorometry.
T3 sequence (Q99594 whole entry, the tested form may be a part): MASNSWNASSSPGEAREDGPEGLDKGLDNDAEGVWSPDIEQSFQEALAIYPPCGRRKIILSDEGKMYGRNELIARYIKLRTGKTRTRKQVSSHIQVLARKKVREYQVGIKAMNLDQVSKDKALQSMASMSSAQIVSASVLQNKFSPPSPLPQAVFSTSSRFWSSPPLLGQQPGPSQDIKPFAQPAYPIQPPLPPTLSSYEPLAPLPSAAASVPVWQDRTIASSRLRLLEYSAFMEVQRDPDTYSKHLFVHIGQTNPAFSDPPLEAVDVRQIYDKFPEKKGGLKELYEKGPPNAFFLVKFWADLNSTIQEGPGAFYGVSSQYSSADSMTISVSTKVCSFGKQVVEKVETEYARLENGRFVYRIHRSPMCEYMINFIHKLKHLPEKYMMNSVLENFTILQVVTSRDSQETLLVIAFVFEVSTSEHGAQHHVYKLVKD
Series [8] deals with T4, Transcriptional enhancer factor TEF-3 (Homo sapiens, UniProt Q15561). The series is described as follows: Binding affinity to human TEAD4 (217 to 434 residues) expressed in Escherichia coli BL21 Star (DE3) assessed as change in melting temperature incubated for 2 hr by measuring tryptophane fluorescence by Nano Differential scanning fluorometry.
T4 sequence (Q15561 whole entry, the tested form may be a part): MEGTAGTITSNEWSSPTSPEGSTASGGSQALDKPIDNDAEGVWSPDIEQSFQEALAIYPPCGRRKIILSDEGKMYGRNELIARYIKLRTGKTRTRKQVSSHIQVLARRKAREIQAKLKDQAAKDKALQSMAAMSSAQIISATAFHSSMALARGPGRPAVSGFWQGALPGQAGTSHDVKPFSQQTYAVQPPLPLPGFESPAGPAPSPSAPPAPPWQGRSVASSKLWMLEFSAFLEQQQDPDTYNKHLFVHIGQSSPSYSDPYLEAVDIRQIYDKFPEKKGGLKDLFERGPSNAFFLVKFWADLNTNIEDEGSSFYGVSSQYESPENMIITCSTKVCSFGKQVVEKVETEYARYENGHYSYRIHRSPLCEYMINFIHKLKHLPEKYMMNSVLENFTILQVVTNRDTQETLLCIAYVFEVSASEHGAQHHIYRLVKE
The target of series [9] is T1, Transcriptional enhancer factor TEF-1. The series is described as follows: Inhibition of pSF-CMV-P-FLAG tagged human TEAD1 palmitoylation transfected in HEK293 cells at 10 uM incubated for 6 hrs by Western blot analysis relative to control. It counts as cell-based. (In general: Immunoblotting shows a protein as a band on a membrane.)
Series [10] concerns the target T2, Transcriptional enhancer factor TEF-4. The series can be described thus: Inhibition of pSF-CMV-P-FLAG tagged human TEAD2 palmitoylation transfected in HEK293 cells at 10 uM incubated for 6 hrs by Western blot analysis relative to control. It counts as cell-based.
Series [11] concerns the target T3, Transcriptional enhancer factor TEF-5. The series can be described thus: Inhibition of pSF-CMV-P-FLAG tagged human TEAD3 palmitoylation transfected in HEK293 cells at 10 uM incubated for 6 hrs by Western blot analysis relative to control. It counts as cell-based.
Series [12] deals with T4, Transcriptional enhancer factor TEF-3. The series can be described thus: Inhibition of pSF-CMV-P-FLAG tagged human TEAD4 palmitoylation transfected in HEK293 cells at 10 uM incubated for 6 hrs by Western blot analysis relative to control. It counts as cell-based.
The nature of series [13]: Solubility of the compound in PBS buffer at pH 7.4. It counts as physicochemical.
A short description of series [14]: Solubility of the compound in SGF buffer at pH 1.2. It counts as physicochemical.
The nature of series [15]: Microsomal stability in human hepatocyte measured per 10^6 cells. It counts as ADME, cell-based. The settings on record: hepatocytes.
Series [16] deals with T1, Transcriptional enhancer factor TEF-1. The series is described as follows: Binding affinity to human TEAD1 (209 to 426 residues) expressed in Escherichia coli BL21 Star (DE3) by surface plasmon resonance assay.
Series [17] deals with T2, Transcriptional enhancer factor TEF-4. The series is described as follows: Binding affinity to human TEAD2 (217 to 447 residues) expressed in Escherichia coli BL21 Star (DE3) by surface plasmon resonance assay.
The target in series [18] is T4, Transcriptional enhancer factor TEF-3. The series can be described thus: Binding affinity to human TEAD4 (217 to 434 residues) expressed in Escherichia coli BL21 Star (DE3) by surface plasmon resonance assay.

The compound `Cn1cc2c3cc(C(=O)O)ccc3n(-c3ccc(OC(F)(F)F)cc3F)c2n1` yielded an IC50 in [1] of 27 nM.
Compound `Cn1cc2c3cc(C(=O)O)ccc3n(C)c2n1` registered an IC50 in [1] above 30000 nM. Also, the Stability in series [2] and in series [3] was below 10 µL/min throughout.
On to `Cn1cc2c3cc(C(=O)O)ccc3n(C3CCCCC3)c2n1`, for which, in series [1], the 50% inhibitory concentration (IC50) is 0.16 nM.
As to `N#CCn1cc2c3cc(C(=O)O)ccc3n(-c3ccc(C(F)(F)F)cc3)c2n1`, in series [1], the IC50 turned out to be 27 nM.
Consider `O=c1[nH]c(-c2nccnc2Nc2ccc(C(F)(F)F)cc2)no1`, for which the IC50 in series [1] was 15 nM; in series [4], 110 nM. The ΔTm was 11.2 °C in series [5], 12.3 °C in [6], 8.2 °C in series [7] and 9.8 °C in [8]. In addition, the inhibition in series [9] amounted to 97%; in [10], 86%; in series [11], 83%; in series [12], 91%.
`Cn1cc2c3cc(C(=O)O)ccc3n(CC3CCC(C(F)(F)F)CC3)c2n1` (configuration not stated) displayed an IC50 in series [1] of 30 nM.
In [1], `COC1CCC(Cn2c3ccc(C(=O)O)cc3c3cn(C)nc32)CC1` (configuration not stated) had an IC50 of 250 nM.
Take `CCn1cc2c3cc(C(=O)O)ccc3n(-c3ccc(C(F)(F)F)cc3)c2n1`: the IC50 in series [1] was determined as 3 nM.
`Cn1cc2c3cc(C(=O)O)ccc3n(CCC(C)(C)C(F)(F)F)c2n1` yielded an IC50 in [1] of 83 nM. Further, the solubility in series [13] is above 40 µg/mL; in series [14] it was below 1 µg/mL. Also, the Stability in series [2] and in series [3] was below 10 µL/min throughout.
Take `CNS(=O)(=O)c1ccc(Nc2ccc(C(F)(F)F)cc2)c(-c2cn(C)cn2)c1`: the IC50 in series [1] turned out to be 1 nM; in [4], 3 nM. The ΔTm in series [5] stood at 10.2 °C; in series [6] it was 7.2 °C; in series [7], 2 °C; in [8] it was 3.5 °C. Further, the inhibition in series [9] was found to be 97%; in [10] it was 69%; in series [11] it was 29%; in series [12], 70%.
Turning to `Cn1cc2c3cc(C(=O)O)cnc3n(-c3ccc(C(F)(F)F)cc3)c2n1`, in series [1], the IC50 worked out at 6 nM.
Same read-out and setting: as for `O=C(O)c1ccc2c(c1)c1c[nH]nc1n2-c1ccc(C(F)(F)F)cc1`, the figure is 138 nM.
`O=C(O)c1ccc2c(c1)c1cn(C(F)(F)F)nc1n2-c1ccc(C(F)(F)F)cc1` showed an IC50 in [1] of 7 nM. Moreover, the Stability in series [15] was below 4 µL/min.
For `Cn1cc2c3cc(C(=O)O)ccc3n(-c3ccc(C(F)(F)F)c(F)c3)c2n1`, half-maximal inhibition in series [1] (IC50) required 4 nM.
The same measure, in the same setting: for `Cn1cc2c3cc(C(=O)O)ccc3n(-c3ccc(C(F)(F)F)cn3)c2n1` the value was 5 nM; for `Cn1cc2c3cc(C(=O)O)ccc3n(-c3ccc(F)cc3)c2n1`, 163 nM; for `Cn1cc2c3cc(C(=O)O)ccc3n(-c3ccc(C(F)(F)F)nc3)c2n1`, 14 nM.
Still for that read-out and setting: as for `Cn1ncc2c3cc(C(=O)O)ccc3n(-c3ccc(C(F)(F)F)cc3)c21`, the figure is 16.6 nM.
Turning to `Cn1cc2c(n1)c1cc(C(=O)O)ccc1n2C1CCCC1`, in [1], the IC50 came to 17 nM.
For `Cn1cc2c3cc(C(=O)O)ccc3n(CC3CC(C(F)(F)F)C3)c2n1` (configuration not stated), in series [1], half-maximal inhibition (IC50) required 52 nM. The solubility in [13] was above 40 µg/mL; in series [14] it was below 1 µg/mL. The Stability in series [2] and in series [3] was below 10 µL/min in each case.
The compound `Cn1cc2c3cc(C(=O)O)ccc3n(CC3CCCCC3)c2n1` had an IC50 in [1] of 96 nM. For the same compound, the results for the solubility in series [13] and in series [14] were above 40 µg/mL and below 1 µg/mL, respectively.
For `Cn1cc2c3cc(C(=O)O)ccc3n(C3CCC(C(F)(F)F)CC3)c2n1` (configuration not stated) the same measures were 42 nM, above 40 µg/mL and below 1 µg/mL.
As for `CCCc1nn(C2CCC(F)(F)CC2)c2ccc(C(=O)O)cc12`, it took 1.1 nM to reach half-maximal inhibition in [1] (IC50). For the same compound, the Kd in series [16] turned out to be 5800 nM; in series [17], 43000 nM; in series [18] it was 7600 nM.
On to `Cn1cc2c3cc(C(=O)O)ccc3n(-c3cccc(C(F)(F)F)c3)c2n1`, for which the half-maximal inhibitory concentration (IC50) in [1] amounted to 46 nM.
As for `Cn1cc2c(n1)c1cc(C(=O)O)ccc1n2-c1ccc(C(F)(F)F)cc1`, the IC50 in [1] came to 9 nM.
The same measure, in the same setting: for `Cn1cc2c(n1)c1cc(C(=O)O)ccc1n2C1CCCCC1` the value was 0.73 nM; for `Cn1cc2c3cc(C(=O)O)ccc3n(-c3cccc(OC(F)(F)F)c3)c2n1`, 11 nM.
The same measure, in the same setting: for `O=C(O)c1cnc2c(cnn2C2CCC(F)(F)CC2)c1` the value was 28 nM; for `O=C(O)c1ccc2c(cnn2C2CCC(F)(F)CC2)c1`, 14 nM.
Still for that read-out and setting: for `CCCn1cc2c3cc(C(=O)O)ccc3n(-c3ccc(C(F)(F)F)cc3)c2n1` the value was 7 nM.
With `Cn1cc2c3cc(C(=O)O)ccc3n(-c3ccc(OC(F)(F)F)cc3)c2n1`, in [1], half-maximal inhibition (IC50) was put at 3 nM. Besides, the Stability in [2] was found to be 12 µL/min; in series [15] it was 19 µL/min.
In turn, `Cn1cc2c3nc(C(=O)O)ccc3n(-c3ccc(C(F)(F)F)cc3)c2n1` came in with an IC50 in series [1] of 16 nM.
Still for that read-out and setting: as for `Cn1ncc2c1c1cc(C(=O)O)ccc1n2-c1ccc(C(F)(F)F)cc1`, the figure is 48 nM.
As for `C[C@H](NC(=O)c1ccc2c(-c3ccc(C(F)(F)F)cc3)cccc2c1)c1cccc(N)n1`, the IC50 in series [1] turned out to be 30 nM; in [4] it was 20 nM. The ΔTm in [5] worked out at 14.5 °C; in [6], 13.4 °C; in series [7] it was 13.4 °C; in [8], 1.3 °C. Further, the inhibition amounted to 92% in series [9], 87% in series [10], 91% in series [11] and 93% in series [12].
`O=C(O)c1cnc2c(cnn2C2CCCC2)c1`: the midpoint of inhibition in [1], the IC50, lay at 16 nM.
In the case of `CNS(=O)(=O)c1ccc(NCc2ccccc2)c(-c2cn(C)cn2)c1`, the IC50 in series [1] was 29 nM; in series [4], 140 nM. In addition, the thermal shift (ΔTm) is 3.4 °C in series [5], -0.7 °C in series [6], 0.4 °C in series [7] and -0.1 °C in series [8]. Moreover, the inhibition in series [9] was 96%; in [10] it was 33%; in [11], 10%; in series [12] it was 19%.
As to `O=C(O)c1cnc2c(cnn2C2CCCCC2)c1`, the IC50 in series [1] was 5.2 nM.
`C[C@H](NC(=O)c1ccc2c(-c3ccc(C(F)(F)F)cc3)cccc2c1)c1ccccn1`: the IC50 in series [1] is 25 nM; in series [4], 42 nM. In addition, the ΔTm in series [5] is 10.8 °C; in series [6] it was 9.8 °C; in series [7], 10.1 °C; in series [8] it was -2.25 °C. The inhibition was 93% in series [9], 87% in series [10], 93% in [11] and 93% in [12].
For the compound `O=C(O)c1ccc2c(cnn2C2CCCC2)c1`, the IC50 in [1] was above 30 nM.
Regarding `Cn1cc2c3cc(C(=O)O)ccc3n(C34CC(C(F)(F)F)(C3)C4)c2n1`, 33 nM corresponded to half-maximal inhibition in series [1] (IC50). Also, the Stability in series [2] and in [3] was below 10 µL/min in each case.
In the case of `C[C@@H](NC(=O)c1ccc2c(-c3ccc(C(F)(F)F)cc3)cccc2c1)c1cccc(N)n1`, the IC50 was found to be 900 nM in [1] and 661 nM in [4]. In addition, the ΔTm in series [5] worked out at 5.5 °C; in [6] it was 3.8 °C; in [7], 5.9 °C; in series [8] it was 1.3 °C. In addition, the inhibition in series [9] came to 83%; in [10], 51%; in series [11], 91%; in series [12] it was 66%.
Compound `Cn1cc2c3cc(C(=O)O)ccc3n(C3CC4(C3)CC(F)(F)C4)c2n1` came in with an IC50 in series [1] of 33 nM. For the same compound, the Stability in [2] and in series [3] was below 10 µL/min throughout.
In the case of `Cn1cc2c(n1)[nH]c1ccc(C(=O)O)cc12`, the IC50 in series [1] is above 30000 nM.
The same measure, in the same setting: for `Cn1cc2c3cc(C(=O)O)ncc3n(-c3ccc(C(F)(F)F)cc3)c2n1` the value was 39 nM.

By IC50 is commonly meant the concentration that gives 50% inhibition. The term ΔTm denotes the shift of the melting midpoint relative to a reference. In general, inhibition refers to the share of the control response that was lost under treatment. As usually defined, the solubility is how much of the substance goes into solution per volume. Usually Kd stands for the constant that tells how readily two partners part at equilibrium.
